Here are results for one compound from ChEMBL document CHEMBL2073802, “Increase in doxorubicin cytotoxicity by inhibition of P-glycoprotein activity with lomerizine” (Biol Pharm Bull, 2001).

This data set addresses ATP-dependent translocase ABCB1 (Homo sapiens, UniProt P08183). Description: TP_TRANSPORTER: increase in Calcein intracellular accumulation (Calcein: 1 uM, Lomerizine: 10 uM) in K562/DOX cells. As to conditions: k562/adr. The data set is classed as functional, cell-based.

Sequence of ATP-dependent translocase ABCB1 (P08183 whole entry): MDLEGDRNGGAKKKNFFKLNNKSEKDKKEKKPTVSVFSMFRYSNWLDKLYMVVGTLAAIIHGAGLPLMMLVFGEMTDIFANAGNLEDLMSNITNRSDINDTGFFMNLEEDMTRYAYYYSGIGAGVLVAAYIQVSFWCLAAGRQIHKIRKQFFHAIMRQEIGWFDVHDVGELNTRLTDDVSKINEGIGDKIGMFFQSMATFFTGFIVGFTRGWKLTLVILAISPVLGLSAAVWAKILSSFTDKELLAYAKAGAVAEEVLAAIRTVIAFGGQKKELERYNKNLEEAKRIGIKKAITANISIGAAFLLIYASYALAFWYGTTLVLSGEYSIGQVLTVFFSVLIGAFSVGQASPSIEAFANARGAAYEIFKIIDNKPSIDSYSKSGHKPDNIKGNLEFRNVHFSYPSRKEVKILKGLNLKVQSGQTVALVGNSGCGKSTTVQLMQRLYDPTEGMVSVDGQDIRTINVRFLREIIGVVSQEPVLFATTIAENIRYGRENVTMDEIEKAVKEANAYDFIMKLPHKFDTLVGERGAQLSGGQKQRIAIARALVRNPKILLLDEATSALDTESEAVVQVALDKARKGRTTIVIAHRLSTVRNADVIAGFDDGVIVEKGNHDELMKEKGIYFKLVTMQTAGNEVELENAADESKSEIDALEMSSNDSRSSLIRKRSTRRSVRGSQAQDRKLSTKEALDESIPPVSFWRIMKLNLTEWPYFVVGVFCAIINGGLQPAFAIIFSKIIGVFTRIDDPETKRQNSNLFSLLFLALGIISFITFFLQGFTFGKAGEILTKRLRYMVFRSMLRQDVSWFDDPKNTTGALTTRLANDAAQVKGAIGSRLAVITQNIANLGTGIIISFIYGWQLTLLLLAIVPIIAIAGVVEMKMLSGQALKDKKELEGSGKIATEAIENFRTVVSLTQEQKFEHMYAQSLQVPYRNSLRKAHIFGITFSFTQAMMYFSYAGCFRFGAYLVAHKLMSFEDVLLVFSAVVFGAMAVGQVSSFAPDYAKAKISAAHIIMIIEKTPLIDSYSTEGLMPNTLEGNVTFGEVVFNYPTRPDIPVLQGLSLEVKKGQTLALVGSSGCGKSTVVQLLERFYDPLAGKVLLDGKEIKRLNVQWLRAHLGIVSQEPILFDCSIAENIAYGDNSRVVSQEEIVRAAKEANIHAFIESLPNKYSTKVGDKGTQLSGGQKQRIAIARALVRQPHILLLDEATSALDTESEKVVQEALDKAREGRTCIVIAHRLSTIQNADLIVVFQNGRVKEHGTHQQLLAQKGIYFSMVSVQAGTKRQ

With `COc1ccc(CN2CCN(C(c3ccc(F)cc3)c3ccc(F)cc3)CC2)c(OC)c1OC` [LOMERIZINE], the Activity entry was “inhibitor [+]”.
